We go through 25 compounds from patent US12686690B2, “Macrocyclic urea orexin receptor agonists” (Merck Sharp & Dohme LLC, priority 2020, dated 2026).

For the test, the target named is T1, hOX2R (Homo sapiens, UniProt O43614).
T1 construct: expressed in transfected cells; host or cells: CHO cells (G418 selection)
T1 sequence (O43614 1-444): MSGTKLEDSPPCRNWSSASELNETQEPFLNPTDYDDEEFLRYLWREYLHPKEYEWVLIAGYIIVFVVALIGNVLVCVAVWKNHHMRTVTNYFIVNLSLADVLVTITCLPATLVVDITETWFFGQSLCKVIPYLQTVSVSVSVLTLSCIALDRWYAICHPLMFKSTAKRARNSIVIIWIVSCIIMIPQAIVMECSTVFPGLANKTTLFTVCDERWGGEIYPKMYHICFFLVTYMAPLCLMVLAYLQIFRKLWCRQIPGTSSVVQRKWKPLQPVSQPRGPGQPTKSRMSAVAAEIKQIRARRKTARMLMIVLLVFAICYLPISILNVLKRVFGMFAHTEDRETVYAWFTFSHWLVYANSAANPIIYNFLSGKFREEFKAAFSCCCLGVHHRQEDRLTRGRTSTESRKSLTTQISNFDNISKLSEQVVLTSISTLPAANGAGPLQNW
Briefly: hOX2R IPone assay (orexin receptor agonism). The format is cell-based. The following applies: IPone readout; for hOX2R_Ipone max %act: maximal activation; for EC50: orexin receptor agonist, read-out: hOX2R_IPone EC50.

`CCN1C(=O)NC(CC(F)F)CCCCCOc2nc(cn3ccnc23)-c2cc(ncc2OC)[C@H]1C` (stereo partly drawn) [Example 186, (3R,E)-7-(2,2-difluoroethyl)-4-ethyl-25-methoxy-3-methyl-13-oxa-4,6-diaza-1(6,8)-imidazo[1,2-a]pyrazina-2(4,2)-pyridinacyclotridecaphan-5-one]: the hOX2R_Ipone max %act stood at 102.3% and the 50% effective concentration (EC50) (commonly the midpoint of the concentration-response curve) was 1.02 nM.
Taken in the same sequence, the figures for `CCN1C(=O)N[C@@H](CCC(F)(F)F)CCS(=O)(=O)CCOc2nc(cn3ncnc23)-c2cc(ncc2OC)[C@H]1C` [Example 135, (3R,7S,E)-4-ethyl-25-methoxy-3-methyl-7-(3,3,3-trifluoropropyl)-13-oxa-10-thia-4,6-diaza-1(6,8)-[1,2,4]triazolo[1,5-a]pyrazina-2(4,2)-pyridinacyclotridecaphan-5-one 10,10-dioxide] were 93.31% and 170 nM.
Taken in the same sequence, the figures for `CCC1CCCCCOc2nc(cn3ccnc23)-c2cc(ncc2OC)[C@@H](C)N(CC)C(=O)N1` (single isomer, unassigned) [Example 52A] were 97% and 548 nM.
Taken in the same sequence, the figures for `CCN1C(=O)NC(CCC(F)(F)F)CCCCCOc2cc(n3nccc3c2)-c2ccnc(c2)C1C` [Example 156, (3R,7R,E)-4-ethyl-3-methyl-7-(3,3,3-trifluoropropyl)-13-oxa-4,6-diaza-1(5,7)-pyrazolo[1,5-a]pyridina-2(4,2)-pyridinacyclotridecaphan-5-one] were 100.3% and 1.32 nM.
Take `CCN1C(=O)NC(CCOC(F)(F)F)CCCCCOc2nc(cn3ccnc23)-c2cc(ncc2OC)[C@H]1C` (single isomer, unassigned) [Example 73B]: the hOX2R_Ipone max %act was 99.6% and the EC50 turned out to be 0.8 nM.
Taken in the same sequence, the figures for `CCN1C(=O)NCC(C(F)(F)F)N(C)CCCOc2nc(cn3ccnc23)-c2cccc(c2)C1C` [Example 26A, (3R,E)-4-ethyl-3,9-dimethyl-8-(trifluoromethyl)-13-oxa-4,6,9-triaza-1(6,8)-imidazo[1,2-a]pyrazina-2(1,3)-benzenacyclotridecaphan-5-one] were 99.4% and 13.9 nM.
For `CCN1C(=O)N[C@@H](CCC(F)(F)F)CCCCOc2nc(cn3ccnc23)-c2ccnc(c2)[C@@H]1C` [Example 29A, (12S,16R)-13-ethyl-12-methyl-16-(3,3,3-tri-fluoropropyl)-12,13,15,16,17, 18,19,20-octahydro-14H-6,22-(azeno)-11,7-(metheno) imidazo[2,1-c][1,4,10,13,15] oxatetraazacyclo-icosin-14-one], the hOX2R_Ipone max %act worked out at 99.5% and the EC50 was determined as 42.9 nM.
For the compound `CCN1C(=O)N[C@@H](CCC(F)(F)F)CCCCCOc2cc(cc3ccnn23)-c2nc(cnc2OC)C1C` (single isomer, unassigned) [Example 80A], the hOX2R_Ipone max %act came to 98.9% and the half-maximal effective concentration (EC50) is 370 nM.
The like results for `CCN1C(=O)NC(CCOC(F)F)CCCCCOc2nc(cn3ccnc23)-c2cc(ncc2OC)[C@H]1C` (stereo partly drawn) [Example 182, (3R,E)-7-(2-(difluoromethoxy)ethyl)-4-ethyl-25-methoxy-3-methyl-13-oxa-4,6-diaza-1(6,8)-imidazo[1,2-a]pyrazina-2(4,2)-pyridinacyclotridecaphan-5-one] were, in that order, 98.9% and 0.85 nM.
In the case of `CCN1C(=O)N[C@@H](CCC(F)(F)F)CCCCCOc2nc(cn3ccnc23)-c2nc(ccc2OC)[C@H]1C` [Example 97, (12R,16R)-13-ethyl-8-methoxy-12-methyl-16-(3,3,3-trifluoropropyl)-12,13,16,17,18,19,20, 21-octahydro-6,23:11,7-di(azeno) imidazo[2,1-c][1,4,13,15]oxatriaza-cyclohenicosin-14(15H)-one], the hOX2R_Ipone max %act was 102% and the EC50 worked out at 0.6 nM.
Consider `CCN1C(=O)NC(CCOC(F)(F)F)CCCCCOc2nc(cn3ccnc23)-c2cc(ncc2OC)[C@H]1C` (single isomer, unassigned) [Example 73A], for which the hOX2R_Ipone max %act is 100.6% and the EC50 stood at 8.6 nM.
The like results for `CCN1C(=O)NC(CCC(F)(F)F)C(C)/C=C\COc2nc(cn3ccnc23)-c2cccc(c2)[C@H]1C` (single isomer, unassigned) [Example 41A] were, in that order, 100.9% and 115 nM.
As for `CCN1C(=O)N[C@@H](CCC(F)(F)F)CCOCCOc2nc(cn3ccnc23)-c2cc(ccn2)[C@H]1C` [Example 161, (3R,7S,E)-4-ethyl-3-methyl-7-(3,3,3-trifluoropropyl)-10,13-dioxa-4,6-diaza-1(6,8)-imidazo[1,2-a]pyrazina-2(2,4)-pyridinacyclotridecaphan-5-one], the hOX2R_Ipone max %act was 101.7% and the concentration for a half-maximal effect (EC50) is 2.66 nM.
As for `CCN1C(=O)NC(C2CC(F)(F)C2)CCCCCOc2nc(cn3ccnc23)-c2cc(ncc2OC)[C@H]1C` (stereo partly drawn) [Example 195, (3R,E)-7-(3,3-difluorocyclobutyl)-4-ethyl-25-methoxy-3-methyl-13-oxa-4,6-diaza-1(6,8)-imidazo[1,2-a]pyrazina-2(4,2)-pyridinacyclotri-decaphan-5-one], the hOX2R_Ipone max %act was 101.4% and the concentration for a half-maximal effect (EC50) was found to be 0.84 nM.
The like results for `CCN1C(=O)NC(CCCOC)CCCCCOc2nc(cn3ccnc23)-c2cc(ncc2OC)[C@H]1C` (single isomer, unassigned) [Example 60A] were, in that order, 100.4% and 52.1 nM.
As for `CCN1C(=O)N[C@@H](CCC(F)(F)F)CCCCCOc2cc(cn3ccnc23)-c2cc(cnc2OC)[C@H]1C` [Example 91, (12R,16R)-13-ethyl-8-methoxy-12-methyl-16-(3,3,3-trifluoropropyl)-12,13,16,17,18,19,20, 21-octahydro-6,23:11,7-di(metheno) imidazo[2,1-c][1,4,9, 13,15]oxatetraazacyclo-henicosin-14(15H)-one], the hOX2R_Ipone max %act was 100.5% and the EC50 amounted to 0.6 nM.
With `CCN1C(=O)NCCN(C)CCC(C)Oc2nc(cn3ccnc23)-c2cccc(c2)[C@H]1C` (mixture of isomers) [Example 16, (12R)-13-ethyl-12,18,21-trimethyl-12,13, 16,17,18,19,20,21-octahydro-6,23-(azeno)-11,7-(metheno) imidazo[2,1-c][1,4,13,15,18]oxa-tetraazacyclo-henicosin-14(15H)-one], the hOX2R_Ipone max %act was found to be 77.7% and the concentration giving a half-maximal response (EC50) is 3880 nM.
In the case of `CCN1C(=O)N[C@@H](CCC(F)(F)F)CCCCCOc2nc(cn3ccnc23)-c2cc(ncn2)[C@H]1C` [Example 112A, (12R,16R)-13-ethyl-12-methyl-16-(3,3,3-trifluoropropyl)-12,13,16,17,18,19,20,21-octahydro-6,23-(azeno)-11,7-(metheno)imidazo[2,1-c][1,4,8,10,13,15]oxapentaazacyclohenicosin-14(15H)-one], the hOX2R_Ipone max %act was 101.2% and the EC50 was 6.8 nM.
The like results for `CCN1C(=O)NC(C(C)(C)C)CCCCCOc2nc(cn3ccnc23)-c2cc(ncc2OC)[C@H]1C` (single isomer, unassigned) [Example 63A] were, in that order, 98.43% and 315 nM.
As to `CCN1C(=O)NCCN(C(C)C)CCOc2nc(cn3ccnc23)-c2cccc(c2)[C@H]1C` [Example 3, (12R)-13-ethyl-12-methyl-18-(propan-2-yl)-12,13,15,16,17,18,19,20-octahydro-14H-6,22-(azeno)-11,7-(metheno)imidazo[1,2-r][1,4,7,9,18]oxatetraaza-cycloicosin-14-one], the hOX2R_Ipone max %act came to 88.8% and the EC50 stood at 2500 nM.
The like results for `CCN1C(=O)NC(CC2CC2(F)F)CCCCCOc2nc(cn3ccnc23)-c2cc(ncc2OC)[C@H]1C` (single isomer, unassigned) [Example 59B] were, in that order, 100.1% and 3.1 nM.
Taken in the same sequence, the figures for `CCN1C(=O)N[C@@H](C(F)(F)F)CCCCOc2nc(cn3ncnc23)-c2cc(ncc2OC)C1C(F)(F)F` (stereo partly drawn) [Example 37, (16R)-13-ethyl-8-methoxy-12,16-bis(trifluoromethyl)-12,13,15,16,17,18,19,20-octahydro-14H-6,22-(azeno)-11,7-(metheno) [1,2,4]triazolo[5,1-c][1,4,10,13,15]oxatetra-azacycloicosin-14-one] were 77.3% and 3010 nM.
The like results for `CCN1C(=O)NC(COC)CCCCCOc2nc(cn3ccnc23)-c2cc(ncc2OC)[C@H]1C` (single isomer, unassigned) [Example 58A] were, in that order, 100.8% and 48.9 nM.
Regarding `CCN1C(=O)N[C@@H](CCC(C)(F)F)CCCCCOc2nc(c(C)n3ccnc23)-c2cc(ccn2)[C@H]1C` [Example 160, (3R,7R,E)-7-(3,3-difluorobutyl)-4-ethyl-15,3-dimethyl-13-oxa-4,6-diaza-1(6,8)-imidazo[1,2-a]pyrazina-2(2,4)-pyridinacyclotridecaphan-5-one], the hOX2R_Ipone max %act is given as 101.4% and the EC50 came to 0.77 nM.
In the case of `CCN1C(=O)NC(CCC(F)(F)F)C(C)CCCOc2nc(cn3ccnc23)-c2cccc(c2)[C@H]1C` (single isomer, unassigned) [Example 42A], the hOX2R_Ipone max %act is given as 100.6% and the half-maximal effective concentration (EC50) stood at 6.6 nM.
